Results on ten compounds are retold here after PubChem BioAssay (NCI).

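Protocol summary: plate cells (96-well), add compound at 5 concentrations, incubate 48 h, interpolate endpoints linearly. Abbreviation: GI50, concentration required for 50% inhibition of growth. Definition used: TGI = concentration required for complete inhibition of growth.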

In the first assay the test system is SK-OV-3 ovarian. Nature of the assay: inhibition of tumour cell growth, NCI panel, 48 h.
For `O=NN(Cc1ccc(Cl)cc1)C(C(=O)O)c1ccccc1` (centres undefined), the TGI is more than 100 µM.

A further assay concerns K-562 leukemia. Kind of assay: inhibition of tumour cell growth, NCI panel, 48 h.
Take `CC1=C(C(=O)Nc2ccc3[nH]ncc3c2)C(c2ccc3ccccc3c2)CC(=O)N1` (centres undefined): the GI50 was more than 25 µM and the TGI is more than 25 µM.

Turning to `O=C1/C(=C/c2ccc(Br)cc2)C=C(c2ccccc2)N1CCc1ccccc1`, the GI50 is 2.63 µM and the TGI is 20.5 µM.

Consider `CSc1ccc(C2=NN(C(C)=O)C(c3cc(C)cs3)C2)cc1` (centres undefined), for which the GI50 is 9.31 µM and the TGI was more than 100 µM.

On to `CCCCC(=O)OCC1OC(n2cnc3c(=S)nc[nH]c32)C(OC(=O)CCCC)C1OC(=O)CCCC` (centres undefined), for which the GI50 was 2.03 µM and the TGI was more than 100 µM.

Turning to `O=c1oc2ccc(F)cc2c(=O)n1-c1ccc(F)cc1F`, the GI50 was 3.11 µM and the TGI was more than 100 µM.

`O=C(O)CCCCC(CCSCc1ccccc1)SCc1ccccc1` (centres undefined): the GI50 was 44.5 µM and the TGI is more than 100 µM.

Turning to `CC1=C(CCCNS(C)(=O)=O)C2=C(C)C3(CC3)[C@@](C)(O)C(=O)C2=C1`, the GI50 was 61.8 µM and the TGI was more than 100 µM.

As to `O=C1CNCCCN2CCN(CCCNCC(=O)Nc3ccc(cc3)S(=O)(=O)c3ccc(cc3)NC(=O)CNCCCN3CCN(CCCNCC(=O)Nc4ccc(cc4)S(=O)(=O)c4ccc(cc4)N1)CC3)CC2`, the TGI is more than 58.5 µM.

In the case of `N#Cc1ccc(C#Cc2ccccc2C#CCCCCO)cc1`, the GI50 is 21.7 µM and the TGI amounted to 46.1 µM.

Compound `O=NN(Cc1ccc(Cl)cc1)C(C(=O)O)c1ccccc1` (centres undefined) registered a TGI of more than 100 µM.

The next assay has as its system KM12 colon. Kind of assay: inhibition of tumour cell growth, NCI panel, 48 h.
Take `CC1=C(C(=O)Nc2ccc3[nH]ncc3c2)C(c2ccc3ccccc3c2)CC(=O)N1` (centres undefined): the GI50 was 17.8 µM and the TGI is more than 25 µM.

Turning to `O=C1/C(=C/c2ccc(Br)cc2)C=C(c2ccccc2)N1CCc1ccccc1`, the GI50 was 43.6 µM and the TGI was more than 100 µM.

As for `CSc1ccc(C2=NN(C(C)=O)C(c3cc(C)cs3)C2)cc1` (centres undefined), the GI50 was 24 µM and the TGI is more than 100 µM.

As for `CCCCC(=O)OCC1OC(n2cnc3c(=S)nc[nH]c32)C(OC(=O)CCCC)C1OC(=O)CCCC` (centres undefined), the GI50 was 1.48 µM and the TGI was more than 100 µM.

Turning to `O=c1oc2ccc(F)cc2c(=O)n1-c1ccc(F)cc1F`, the GI50 is 3.38 µM and the TGI worked out at 14 µM.

For `O=C(O)CCCCC(CCSCc1ccccc1)SCc1ccccc1` (centres undefined), the GI50 is 35.2 µM and the TGI is more than 100 µM.

For the compound `CC1=C(CCCNS(C)(=O)=O)C2=C(C)C3(CC3)[C@@](C)(O)C(=O)C2=C1`, the GI50 is 3.99 µM and the TGI is more than 100 µM.

In turn, `O=C1CNCCCN2CCN(CCCNCC(=O)Nc3ccc(cc3)S(=O)(=O)c3ccc(cc3)NC(=O)CNCCCN3CCN(CCCNCC(=O)Nc4ccc(cc4)S(=O)(=O)c4ccc(cc4)N1)CC3)CC2` showed a TGI of more than 100 µM.

In the case of `N#Cc1ccc(C#Cc2ccccc2C#CCCCCO)cc1`, the GI50 was 17.8 µM and the TGI amounted to 36.2 µM.

Compound `O=NN(Cc1ccc(Cl)cc1)C(C(=O)O)c1ccccc1` (centres undefined) displayed a TGI of more than 100 µM.

The next assay concerns SF-295 CNS. Nature of the assay: inhibition of tumour cell growth, NCI panel, 48 h.
With `CC1=C(C(=O)Nc2ccc3[nH]ncc3c2)C(c2ccc3ccccc3c2)CC(=O)N1` (centres undefined), the GI50 was 16.5 µM and the TGI is more than 25 µM.

Take `O=C1/C(=C/c2ccc(Br)cc2)C=C(c2ccccc2)N1CCc1ccccc1`: the GI50 was 0.332 µM and the TGI is 1.59 µM.

For `CSc1ccc(C2=NN(C(C)=O)C(c3cc(C)cs3)C2)cc1` (centres undefined), the GI50 is 22.4 µM and the TGI is more than 100 µM.

For the compound `CCCCC(=O)OCC1OC(n2cnc3c(=S)nc[nH]c32)C(OC(=O)CCCC)C1OC(=O)CCCC` (centres undefined), the GI50 was 1.54 µM and the TGI is more than 26.4 µM.

For the compound `O=c1oc2ccc(F)cc2c(=O)n1-c1ccc(F)cc1F`, the GI50 is 2.33 µM and the TGI was found to be 5.58 µM.

As to `O=C(O)CCCCC(CCSCc1ccccc1)SCc1ccccc1` (centres undefined), the GI50 is 25.8 µM and the TGI was more than 74.5 µM.

Take `CC1=C(CCCNS(C)(=O)=O)C2=C(C)C3(CC3)[C@@](C)(O)C(=O)C2=C1`: the GI50 was 0.634 µM and the TGI was 19.9 µM.

`O=C1CNCCCN2CCN(CCCNCC(=O)Nc3ccc(cc3)S(=O)(=O)c3ccc(cc3)NC(=O)CNCCCN3CCN(CCCNCC(=O)Nc4ccc(cc4)S(=O)(=O)c4ccc(cc4)N1)CC3)CC2` came in with a TGI of more than 62.6 µM.

Regarding `N#Cc1ccc(C#Cc2ccccc2C#CCCCCO)cc1`, the GI50 is 21.3 µM and the TGI was found to be 41 µM.

For `O=NN(Cc1ccc(Cl)cc1)C(C(=O)O)c1ccccc1` (centres undefined), the TGI is more than 100 µM.

The test system of the next assay is SNB-75 CNS. Kind of assay: inhibition of tumour cell growth, NCI panel, 48 h.
In the case of `CC1=C(C(=O)Nc2ccc3[nH]ncc3c2)C(c2ccc3ccccc3c2)CC(=O)N1` (centres undefined), the GI50 was 1.54 µM and the TGI was more than 20.1 µM.

On to `O=C1/C(=C/c2ccc(Br)cc2)C=C(c2ccccc2)N1CCc1ccccc1`, for which the GI50 is 0.66 µM and the TGI worked out at 3.83 µM.

As for `CSc1ccc(C2=NN(C(C)=O)C(c3cc(C)cs3)C2)cc1` (centres undefined), the GI50 is 22.1 µM and the TGI is more than 100 µM.

Turning to `CCCCC(=O)OCC1OC(n2cnc3c(=S)nc[nH]c32)C(OC(=O)CCCC)C1OC(=O)CCCC` (centres undefined), the GI50 is 0.213 µM.

With `O=c1oc2ccc(F)cc2c(=O)n1-c1ccc(F)cc1F`, the GI50 is 1.58 µM and the TGI amounted to 5.43 µM.

For the compound `O=C(O)CCCCC(CCSCc1ccccc1)SCc1ccccc1` (centres undefined), the GI50 is more than 100 µM and the TGI was more than 100 µM.

Turning to `CC1=C(CCCNS(C)(=O)=O)C2=C(C)C3(CC3)[C@@](C)(O)C(=O)C2=C1`, the GI50 was 0.342 µM and the TGI worked out at 1.67 µM.

With `O=C1CNCCCN2CCN(CCCNCC(=O)Nc3ccc(cc3)S(=O)(=O)c3ccc(cc3)NC(=O)CNCCCN3CCN(CCCNCC(=O)Nc4ccc(cc4)S(=O)(=O)c4ccc(cc4)N1)CC3)CC2`, the TGI was more than 100 µM.

For `N#Cc1ccc(C#Cc2ccccc2C#CCCCCO)cc1`, the GI50 was 42.2 µM and the TGI was more than 100 µM.

`O=NN(Cc1ccc(Cl)cc1)C(C(=O)O)c1ccccc1` (centres undefined) displayed a TGI of more than 100 µM.

A further assay has as its system NCI-H226 lung. Nature of the assay: inhibition of tumour cell growth, NCI panel, 48 h.
Take `CC1=C(C(=O)Nc2ccc3[nH]ncc3c2)C(c2ccc3ccccc3c2)CC(=O)N1` (centres undefined): the GI50 is 1.04 µM and the TGI is more than 18.2 µM.

In the case of `O=C1/C(=C/c2ccc(Br)cc2)C=C(c2ccccc2)N1CCc1ccccc1`, the GI50 is 1.11 µM and the TGI amounted to 4.57 µM.

Turning to `CSc1ccc(C2=NN(C(C)=O)C(c3cc(C)cs3)C2)cc1` (centres undefined), the GI50 was 21.8 µM and the TGI was more than 100 µM.

For `CCCCC(=O)OCC1OC(n2cnc3c(=S)nc[nH]c32)C(OC(=O)CCCC)C1OC(=O)CCCC` (centres undefined), the TGI is more than 100 µM.

`O=c1oc2ccc(F)cc2c(=O)n1-c1ccc(F)cc1F`: the GI50 was 2.82 µM and the TGI stood at 72.9 µM.

In the case of `O=C(O)CCCCC(CCSCc1ccccc1)SCc1ccccc1` (centres undefined), the GI50 was more than 71 µM and the TGI is more than 100 µM.

Consider `CC1=C(CCCNS(C)(=O)=O)C2=C(C)C3(CC3)[C@@](C)(O)C(=O)C2=C1`, for which the GI50 is 1.04 µM and the TGI is 5.79 µM.

Take `O=C1CNCCCN2CCN(CCCNCC(=O)Nc3ccc(cc3)S(=O)(=O)c3ccc(cc3)NC(=O)CNCCCN3CCN(CCCNCC(=O)Nc4ccc(cc4)S(=O)(=O)c4ccc(cc4)N1)CC3)CC2`: the TGI was more than 73.6 µM.

Regarding `N#Cc1ccc(C#Cc2ccccc2C#CCCCCO)cc1`, the GI50 is 20.9 µM and the TGI is 38.6 µM.

Take `O=NN(Cc1ccc(Cl)cc1)C(C(=O)O)c1ccccc1` (centres undefined): the TGI was more than 100 µM.
